From paper PMC12284294 (iScience, 2025)

How the values were obtained:
FPR1 = biological target: T1, FPR1 (Homo sapiens, UniProt P21462); type: cell-based
T1 construct: expressed in transfected cells; host or cells: HEK293T
T1 sequence (P21462 1-350): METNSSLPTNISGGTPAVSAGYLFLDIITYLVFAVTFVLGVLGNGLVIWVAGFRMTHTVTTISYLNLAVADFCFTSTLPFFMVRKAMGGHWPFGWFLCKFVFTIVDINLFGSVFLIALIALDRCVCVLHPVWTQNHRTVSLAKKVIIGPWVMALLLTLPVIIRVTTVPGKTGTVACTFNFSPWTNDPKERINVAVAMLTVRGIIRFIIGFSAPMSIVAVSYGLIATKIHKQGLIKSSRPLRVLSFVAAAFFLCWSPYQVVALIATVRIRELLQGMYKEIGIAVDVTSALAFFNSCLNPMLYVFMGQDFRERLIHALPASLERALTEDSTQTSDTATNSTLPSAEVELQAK

[1] = test system: human polymorphonuclear granulocytes (PMN; neutrophils); type: cell-based
FPR1, FPR2, FPR3, PMN = type: cell-based, human

Sequence: GCLIGAEYVNNSYEC [Omicron Variant SCoV2_52, 15mer of Omicron spike pool library]
- significant FPR1 activators (group of the spike peptide pool screening) (FPR1): significant FPR1 activators
- FPR1 calcium activation in library screening (FPR1; individual peptides 10 μM, n = 3): activator
- significant PMN activators (group of the spike peptide pool screening) ([1]; SARS-CoV-2 omicron B.1.1.529 spike pool peptides, 10 µM, PMN, n=6): significant PMN activators
- neutrophil calcium mobilization in library screening ([1]; individual peptides 10 μM, n = 6): activator
- Match with activator (region): Receptor (FPR1, FPR2, FPR3, PMN): PMN + FPR1
